Literature values as cited in patent publication US6313179A, “Treatment of hyperproliferative skin disorders with C18 to C20 aliphatic alcohols” (Avanir Pharmaceuticals, priority 1998, dated 2001).

Conditions: oral ingestion; U.S. Pat. No. 3,031,376; cited from earlier work

Compound | physical performance of athletes
CCCCCCCCCCCCCCCCCCCCCCCCCCO [n-hexacosanol] | improved physical performance of athletes
CCCCCCCCCCCCCCCCCCCCCCCCCCCCO [n-octacosanol, reference compound] | improved physical performance of athletes
CCCCCCCCCCCCCCCCCCCCCCCCO [n-tetracosanol] | improved physical performance of athletes
CCCCCCCCCCCCCCCCCCCCCCCCCCCCCCO [triacontanol, reference compound] | improved physical performance of athletes
